Results on four compounds are retold here after patent publication US8450374B2, “Pan-antagonists for the androgen receptor and androgen receptor mutants associated with anti-androgen withdrawal” (priority 2009, dated 2013).

Positions count from the first letter of the chain named.

Assay [1] deals with T1, AR W741C (Homo sapiens, UniProt P10275, W742C).
T1 sequence (P10275 1-920 W742C): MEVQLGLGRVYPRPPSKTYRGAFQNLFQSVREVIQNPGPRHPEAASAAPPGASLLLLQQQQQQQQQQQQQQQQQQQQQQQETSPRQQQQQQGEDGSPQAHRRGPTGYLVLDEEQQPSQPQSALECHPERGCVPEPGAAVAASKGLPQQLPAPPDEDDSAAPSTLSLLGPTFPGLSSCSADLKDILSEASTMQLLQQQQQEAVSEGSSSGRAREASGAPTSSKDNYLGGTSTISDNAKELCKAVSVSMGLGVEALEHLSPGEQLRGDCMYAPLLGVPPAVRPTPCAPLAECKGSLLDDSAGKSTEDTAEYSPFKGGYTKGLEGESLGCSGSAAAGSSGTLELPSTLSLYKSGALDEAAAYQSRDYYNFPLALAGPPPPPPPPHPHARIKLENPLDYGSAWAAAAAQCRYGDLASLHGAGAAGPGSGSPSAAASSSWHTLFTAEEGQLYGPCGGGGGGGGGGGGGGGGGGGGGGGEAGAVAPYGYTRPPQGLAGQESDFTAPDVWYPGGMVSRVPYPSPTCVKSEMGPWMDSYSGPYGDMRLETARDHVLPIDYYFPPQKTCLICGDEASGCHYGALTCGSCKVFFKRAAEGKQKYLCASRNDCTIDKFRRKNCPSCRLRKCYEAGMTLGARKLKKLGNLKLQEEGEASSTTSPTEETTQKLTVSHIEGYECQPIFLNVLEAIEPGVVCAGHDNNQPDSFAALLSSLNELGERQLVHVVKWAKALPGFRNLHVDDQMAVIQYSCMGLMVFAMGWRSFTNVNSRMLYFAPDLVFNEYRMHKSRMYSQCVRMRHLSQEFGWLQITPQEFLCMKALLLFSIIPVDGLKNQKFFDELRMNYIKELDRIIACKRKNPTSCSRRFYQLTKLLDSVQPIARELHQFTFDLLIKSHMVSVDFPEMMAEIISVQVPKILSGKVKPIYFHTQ
Description: Competitive binding assay, [3H]DHT, transfected COS-7 cells, AR W741C. Set-up: expressed in transfected cells; host or cells: COS-7. The settings on record: 75 nM [3H]-DHT, read-out: Binding affinity (Ki), AR W741C. The procedure: Twenty-four hours prior to transfection, COS-7 cells were seeded at a density of 70,000 cells per well in 24-well cell culture plates and grown in phenol red free Dulbecco's Modified Eagle Medium (DMEM) supplement with 10% cosmic calf serum (CCS). The cells were transfected with a prokaryotic expression vector encoding the wild-type androgen receptor or mutant androgen receptor using Lipofectamine (Invitrogen) following manufacturer's protocol. […] Cells were washed with PBS and harvested in 2% SDS, 10% glycerol, and 10 mM Tris, pH 6.8, and radioactivity determined by scintillation counting.

For another assay, the target named is T2, AR T877A (Homo sapiens, UniProt P10275, T878A).
T2 sequence (P10275 1-920 T878A): T1 sequence (P10275 1-920 W742C) with C742W, T878A
Description: Transcription assay (ARE-luciferase reporter) in CV-1 cells, AR T877A. The settings on record: for Antagonist efficacy (RLU value at IC50), AR T877A: in competition with 10 nM DHT. Format: cell-based. Further details: expressed in transfected cells; host or cells: CV-1. As for the experimental part: (§1) Twenty-four hours prior to transfection, CV-1 cells were seeded at a density of 45,000 cells per well in 24-well cell culture plates and grown in phenol red free Dulbecco's Modified Eagle Medium (DMEM) supplemented with 10% cosmic calf serum (COS). ARE-luciferase reporter and Renilla-Luc as the internal standard and a prokaryotic expression vector encoding the wild-type androgen receptor or mutant androgen receptor were transfected with Lipofectamine (Invitrogen) following manufacturer's protocol. Five hours after transfection, media was added containing the appropriate concentrations of ligands. The cells were allowed to incubate for 38 hours before harvesting by passive lysis buffer. Cell extracts were immediately assayed using the Dual Luciferase Assay (Promega) with a Perkin-Elmer Microbeta Luminometer. […] Dose-response data was analyzed by nonlinear regression analysis using GraphPad Prism.

Assay [2] has as its target T1, AR W741C. Briefly: Transcription assay (ARE-luciferase reporter) in CV-1 cells, AR W741C. In kind it is cell-based. Further details: expressed in transfected cells; host or cells: CV-1. The settings on record: for Antagonist efficacy (RLU value at IC50), AR W741C: in competition with 200 nM DHT. The procedure: as §1
On the technique in general: In a reporter assay the amount or activity of a reporter protein is the signal.

Take `CN(C)CCCOc1cccc(Cc2ccccc2S(=O)(=O)CC(C)(O)C(=O)Nc2ccc(C#N)c(C(F)(F)F)c2)c1` (stereo not shown) [PAN22]: the Ki – broadly, the dissociation constant of the complex between target and ligand, obtained from inhibition or displacement – at AR W741C [1] was determined as 9.8 µM. For the same compound, at AR T877A, it took 1.8 ± 0.3 µM to reach half-maximal inhibition (IC50) and the “Antagonist efficacy (RLU value at IC50), AR T877A” value (from here on “Antagonist efficacy … AR T877A”) is reported as “(53% ± 3.8%)”. On AR W741C [2], the IC50 – broadly, the concentration that gives 50% inhibition – was found to be 5.6 ± 0.8 µM and the “Antagonist efficacy (RLU value at IC50), AR W741C” value (“Antagonist efficacy … AR W741C” for short) is “(53% ± 2.1%)”.

Turning to `CC(O)(CS(=O)(=O)c1ccccc1-c1ccccc1O)C(=O)Nc1ccc(C#N)c(C(F)(F)F)c1` (stereo not shown) [PAN41, N-(4-cyano-3-(trifluoromethyl)phenyl)-2-hydroxy-3-(2′-hydroxybiphenyl-2-ylsulfonyl)-2-methylpropanamide], on AR T877A, it took 3.9 ± 1.9 µM to reach half-maximal inhibition (IC50) and the “Antagonist efficacy … AR T877A” value was “(53% ± 10%)”. In addition, at AR W741C [2], inhibition was half-maximal at 8 ± 2.6 µM (IC50) and the “Antagonist efficacy … AR W741C” value is listed as “(50% ± 1.0%)”.

For the compound `CN(C)CCCOc1cccc(-c2ccccc2S(=O)(=O)CC(C)(O)C(=O)Nc2ccc(C#N)c(C(F)(F)F)c2)c1` (stereo not shown) [PAN52], at AR W741C [1], the Ki was found to be 7.3 µM. Also, at AR T877A, 4 ± 2.2 µM corresponded to half-maximal inhibition (IC50) and the “Antagonist efficacy … AR T877A” value is recorded as “(52% ± 2.5%)”. Also, on AR W741C [2], the IC50 was determined as 5.9 ± 2.5 µM and the “Antagonist efficacy … AR W741C” value is listed as “(50% ± 1.0%)”.

Consider `CN(C)CCCOc1ccc(-c2ccccc2S(=O)(=O)CC(C)(O)C(=O)Nc2ccc(C#N)c(C(F)(F)F)c2)cc1` (stereo not shown) [PAN62], for which the inhibition constant (Ki) at AR W741C [1] was found to be 2.62 µM. In addition, on AR T877A, the IC50 was determined as 5 ± 3.2 µM and the “Antagonist efficacy … AR T877A” value is reported as “(56% ± 5.9%)”. On AR W741C [2], the IC50 is 15 ± 17 µM and the “Antagonist efficacy … AR W741C” value is given as “(56% ± 5.7%)”.
